How the values were obtained:
Assay type in all cases: in vivo
[1] = tested on: adult American dog tick (Dermacentor variabilis); test: Therapeutic (knockdown) and residual efficacy against adult American dog tick infestations on dogs, oral; details: for Residual efficacy: Example 7, oral capsule 35 mg/kg
Protocol: The therapeutic (knockdown) and residual efficacy of 5, administered orally at a point dose of 25 mg/kg bodyweight, was evaluated against adult American dog tick (D. variabilis) infestations on dogs. Six beagle dogs were allocated to one of two treatment groups, an untreated control group (n=4 dogs) or 5 group (n=2 dogs). On Day 0, two dogs were treated with 5 via oral gavage (25 mg/ml 5, dissolved in a solution of 55% polyethylene glycol-300, 35% propylene glycol and 10% water) at a point dose of approximately 25 mg/kg. Twenty-four (24) hours before treatment (Day −1), all dogs were infested with approximately 50 unfed, adult-stage American dog ticks (D. variabilis; approximately 50% male and 50% female). On Day 1, approximately 24 hours after treatment, thumb counts were conducted to determine the number and life-status classification of ticks present on all dogs (normal, moribund or dead; attached or detached). Ticks were not removed during thumb counts. On Day 2, approximately 48 hours after treatment, all ticks were classified and removed from dogs. Dogs were re-infested with approximately 50 unfed, adult D. variabilis ticks on Days 5 and 12, with tick classification, counts and removal on Days 7 and 14 (approximately 48 hours after each infestation).
The therapeutic (knockdown) and residual efficacy of 7 and 8, each administered orally at a point dose of 25 mg/kg bodyweight, was evaluated against adult tick (Dermacentor variabilis and Rhipicephalus sanguineus) and adult cat flea (Ctenocephalides felis) infestations on dogs. Twelve (12) male and female beagle dogs were randomly allocated to one of three treatment groups, four (4) dogs per group: Untreated control; 7, 25 mg/kg; and 8, 25 mg/kg. On Day −1, all dogs were infested with approximately 50 unfed, adult D. variabilis ticks. On Day 0, dogs were orally administered gelatin capsules containing either 7 or 8 (50% technical active, 47% microcrystalline cellulose and 3% croscarmellose sodium, w/w). Ticks were counted and classified, but not removed, on all dogs on Day 1, approximately 24 hours after treatment. On Day 2, approximately 48 hours after treatment, ticks were counted, classified and removed. Dogs were re-infested with the same number of D. variabilis ticks on Days 5, 12, 19 and 28 and tick counts were conducted on Days 7, 14, 21 and 30.
(§1) The therapeutic (knockdown) and residual efficacy of 7, administered orally at a point dose of 35 mg/kg bodyweight, was evaluated against adult tick (Dermacentor variabilis and Rhipicephalus sanguineus) and adult cat flea (Ctenocephalides felis) infestations on dogs. Twelve (12) male and female beagle dogs were allocated to either an untreated, negative control group or 7 group (n=6 dogs per group). Dogs were infested with approximately 50 unfed, adult D. variabilis ticks on Days −1, 5, 12, 19, 28, 35 and 42. On Day 0, dogs were orally administered gelatin capsules containing Compound 8194 (50% technical active, 47% microcrystalline cellulose and 3% croscarmellose sodium, w/w) at a point dose of 35 mg/kg. D. variabilis tick counts and classification were conducted on Day 1 (thumb count, approximately 24 hours after treatment) and Days 2, 7, 14, 21, 30, 37 and 44 (approximately 48 hours after treatment). Following removal of D. variabilis ticks on Day 30, all dogs were co-infested with approximately 50 unfed, adult brown dog ticks (R. sanguineus) and approximately 100 unfed, adult cat fleas (C. felis). Brown dog tick and cat flea counts were conducted on Day 32 (approximately 48 hours after infestation). GM percent efficacy of treatments against both tick species and fleas was calculated using the following formula: […]
The therapeutic (knockdown) and residual efficacy of S-enantiomer, 9, administered orally at a point dose of 25 mg/kg bodyweight, was evaluated against adult tick (Dermacentor variabilis and Rhipicephalus sanguineus) and adult cat flea (Ctenocephalides felis) infestations on dogs. […]

[2] = tested on: brown dog tick (Rhipicephalus sanguineus); test: Residual efficacy against adult brown dog tick infestations on dogs, oral; details: Day 32
Protocol: (§2) Immediately following removal of D. variabilis ticks on Day 30, dogs were co-infested with approximately 50 adult, unfed brown dog ticks (R. sanguineus, approximately 50% male and 50% female) and approximately 100 adult, unfed cat fleas (C. felis, approximately 50% male and 50% female). Ticks and fleas were counted and removed on Day 32 (approximately 48 hours after infestation). GM percent efficacy of treatments against both tick species and fleas was calculated using the following formula: […]
as §1
(§3) The therapeutic (knockdown) and residual efficacy of S-enantiomer, 9, administered orally at a point dose of 25 mg/kg bodyweight, was evaluated against adult tick (Dermacentor variabilis and Rhipicephalus sanguineus) and adult cat flea (Ctenocephalides felis) infestations on dogs. Twelve (12) male and female beagle dogs were allocated to either an untreated, negative control group or 9 group (n=6 dogs per group). Dogs were infested with approximately 50 unfed, adult D. variabilis ticks on Days −1, 5, 12, 19, and 28. On Day 0, dogs were orally administered gelatin capsules containing 9 (50% technical active, 47% microcrystalline cellulose and 3% croscarmellose sodium, w/w) at a point dose of 25 mg/kg. D. variabilis tick counts and classification were conducted on Day 1 (thumb count, approximately 24 hours after treatment) and Days 2, 7, 14, 21 and 30 (approximately 48 hours after treatment). Following removal of D. variabilis ticks on Day 30, all dogs were co-infested with approximately 50 unfed, adult brown dog ticks (R. sanguineus) and approximately 100 unfed, adult cat fleas (C. felis). Brown dog tick and cat flea counts were conducted on Day 32 (approximately 48 hours after infestation). GM percent efficacy of treatments against both tick species and fleas was calculated using the following formula: […]

[3] = tested on: cat flea (Ctenocephalides felis); test: Residual efficacy against adult cat flea infestations on dogs, oral; details: Day 32
Protocol: as §2, §1, §3

[4] = Table 2, oral capsule 25 mg/kg, Day 2
[5] = Table 2, oral capsule 25 mg/kg, Day 7
[6] = Table 2, oral capsule 25 mg/kg, Day 14
[7] = Table 2, oral capsule 25 mg/kg, Day 21
[8] = Table 2, oral capsule 25 mg/kg, Day 30
[9] = Table 3, oral capsule 35 mg/kg, Day 2
[10] = Table 3, oral capsule 35 mg/kg, Day 7
[11] = Table 3, oral capsule 35 mg/kg, Day 14
[12] = Table 3, oral capsule 35 mg/kg, Day 21
[13] = Table 3, oral capsule 35 mg/kg, Day 30
[14] = Table 3, oral capsule 35 mg/kg, Day 37
[15] = Table 3, oral capsule 35 mg/kg, Day 44
[16] = Example 7, oral capsule 35 mg/kg

How did the continued residual efficacy ([1]; Example 6, oral capsule 25 mg/kg, through at least 14 days) turn out when `Cc1cc(C2=NOC(c3cc(Cl)c(Cl)c(Cl)c3)(C(F)(F)F)C2)ccc1C(=O)NCc1ccc2c(c1)B(O)OC2(C)C` (stereo not drawn) [Compound 7, N-((1-Hydroxy-3,3-dimethyl-1,3-dihydrobenzo[c][1,2]oxaborol-6-yl)methyl)-2-methyl-4-(5-(3,4,5-trichlorophenyl)-5-(trifluoromethyl)-4,5-dihydroisoxazol-3-yl)benzamide] was run?
Its continued residual efficacy is 100%.

What about the Residual efficacy ([1]; through Day 14) of the same compound?
The Residual efficacy was greater than 99%.

And the Residual efficacy ([1]; through Day 37)?
Its Residual efficacy is greater than 95%.

And the “Geometric mean group live parasite counts” value ([1]; Table 2, oral capsule 25 mg/kg, Day 1)?
Its value is 0.0.

What about the “% efficacy” value [1, 4] of the same compound?
The value was “(100) %”.

What about the “Geometric mean group live parasite counts” value [1, 4] of the same compound?
The value was 0.0.

What about the “% efficacy” value [1, 5] of the same compound?
The value was “(100) %”.

And the “Geometric mean group live parasite counts” value [1, 5]?
The value was 0.0.

And the “% efficacy” value [1, 6]?
Its value is “(100) %”.

And the “Geometric mean group live parasite counts” value [1, 6]?
The value was 0.0.

What about the “% efficacy” value [1, 7] of the same compound?
The value was “(99.3) %”.

And the “Geometric mean group live parasite counts” value [1, 7]?
The value was 0.3.

And the “% efficacy” value [1, 8]?
The value was “(73.2) %”.

What about the “Geometric mean group live parasite counts” value [1, 8] of the same compound?
Its value is 9.5.

What about the “Geometric mean group live parasite counts” value ([1]; Table 3, oral capsule 35 mg/kg, Day 1) of the same compound?
Its value is 0.1.

And the “% efficacy” value [1, 9]?
The value was “(100) %”.

And the “Geometric mean group live parasite counts” value [1, 9]?
The value was 0.0.

And the “% efficacy” value [1, 10]?
Its value is “(99.1) %”.

And the “Geometric mean group live parasite counts” value [1, 10]?
Its value is 0.3.

What about the “% efficacy” value [1, 11] of the same compound?
Its value is “(100) %”.

What about the “Geometric mean group live parasite counts” value [1, 11] of the same compound?
The value was 0.0.

What about the “% efficacy” value [1, 12] of the same compound?
Its value is “(98.4) %”.

What about the “Geometric mean group live parasite counts” value [1, 12] of the same compound?
The value was 0.2.

What about the “% efficacy” value [1, 13] of the same compound?
The value was “(98.7) %”.

What about the “Geometric mean group live parasite counts” value [1, 13] of the same compound?
The value was 0.4.

And the “% efficacy” value [1, 14]?
Its value is “(95.7) %”.

What about the “Geometric mean group live parasite counts” value [1, 14] of the same compound?
Its value is 1.2.

And the “% efficacy” value [1, 15]?
The value was “(67.2) %”.

And the “Geometric mean group live parasite counts” value [1, 15]?
Its value is 9.3.

What about the Residual efficacy [2, 16] of the same compound?
The Residual efficacy was 98.7%.

What about the “Geometric mean group live parasite counts” value ([2]; Table 2, oral capsule 25 mg/kg) of the same compound?
Its value is 4.8.

And the Residual efficacy [3, 16]?
Its Residual efficacy is 100%.

And the “Geometric mean group live parasite counts” value ([3]; Table 2, oral capsule 25 mg/kg)?
Its value is 0.9.

— patent US8546357B2, “Boron-containing small molecules for controlling ectoparasites” (priority 2011, dated 2013)
